PubChem BioAssay (NCI)
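Cultured in 96-well plates, cells were exposed to test compound for 48 hours across five concentrations. GI50 marks 50% less growth. TGI: concentration producing complete growth inhibition.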

Experiments:
Assay in all cases: NCI tumour cell line growth inhibition, 48 h
A498 renal = test system: A498 renal
HS 578T breast = test system: HS 578T breast
LOX IMVI melanoma = test system: LOX IMVI melanoma
NCI-H226 lung = test system: NCI-H226 lung
NCI-H460 lung = test system: NCI-H460 lung
OVCAR-3 ovarian = test system: OVCAR-3 ovarian
SF-268 CNS = test system: SF-268 CNS
SF-295 CNS = test system: SF-295 CNS
SK-MEL-28 melanoma = test system: SK-MEL-28 melanoma
SNB-75 CNS = test system: SNB-75 CNS

Compound | GI50 (A498 renal) [µM] | TGI (A498 renal) [µM] | GI50 (HS 578T breast) [µM] | TGI (HS 578T breast) [µM] | GI50 (LOX IMVI melanoma) [µM] | TGI (LOX IMVI melanoma) [µM] | GI50 (NCI-H226 lung) [µM] | TGI (NCI-H226 lung) [µM] | GI50 (NCI-H460 lung) [µM] | TGI (NCI-H460 lung) [µM] | GI50 (OVCAR-3 ovarian) [µM] | TGI (OVCAR-3 ovarian) [µM] | GI50 (SF-268 CNS) [µM] | TGI (SF-268 CNS) [µM] | GI50 (SF-295 CNS) [µM] | TGI (SF-295 CNS) [µM] | GI50 (SK-MEL-28 melanoma) [µM] | TGI (SK-MEL-28 melanoma) [µM] | GI50 (SNB-75 CNS) [µM] | TGI (SNB-75 CNS) [µM]
C=C1C(=O)O[C@H]2[C@H]1CC/C(COC(=O)N[C@@H](Cc1c[nH]c3ccccc13)C(=O)OC)=C\CC[C@@]1(C)O[C@@H]21 | 10.3 | 22.3 | 4.62 | 28.5 | 1.16 | 2.58 | 15.4 | 33.5 | 3.4 | 12.6 | 1.24 | 2.69 | 2.25 | 6.67 | 9.4 | 21.6 | 1.66 | 3.53 | 4.45 | 19.3
C[C@]12CC[C@@H]3c4ccc(OCC(=O)O)cc4CC[C@H]3[C@@H]1CCC2=O | – | > 100 | – | > 100 | – | > 100 | – | > 100 | – | > 100 | – | > 100 | – | > 100 | – | > 100 | – | > 100 | – | > 100
O=C(/C=C/C12c3ccccc3C(c3ccccc31)C1C(=O)NC(=O)C12)c1ccco1 (centres undefined) | 2.42 | 6.05 | 4.16 | 30.2 | 1.85 | 3.76 | 3.03 | 9.85 | 1.8 | 3.98 | 2.47 | 5.8 | 2.72 | 9.1 | 3.33 | 11.6 | 2.37 | 4.73 | 3.44 | 12.2
CN(C)c1ccc2[nH]c(O)c(C=Nc3ccc(S(N)(=O)=O)cc3)c2c1 | > 25 | > 25 | > 25 | > 25 | > 25 | > 25 | > 25 | > 25 | > 25 | > 25 | > 25 | > 25 | > 25 | > 25 | > 25 | > 25 | > 25 | > 25 | > 25 | > 25
COc1ccc2c(c1)C(=O)c1c-2c(N2CCN(C(=O)CN(C)C)CC2)nc2ccccc12 | 15.4 | 31.8 | 11.6 | 31.9 | 12.3 | 33.6 | 35.7 | > 100 | 6.01 | 20.6 | 19.5 | 58.6 | 17.3 | 44.3 | 13.7 | 41 | 1.29 | 3.16 | 11.8 | 27.7
CN1CCN(Cc2ccc(NC(=O)c3[nH]ncc3Nc3ccnc4ccsc34)cc2)CC1 | 1.64 | 4.87 | 2.09 | 14.4 | 1.33 | 4.59 | 2.35 | 13.4 | 3.15 | 12 | 2.34 | 11.5 | 3.22 | 11 | 3.73 | 14.2 | 5.23 | 18.4 | 0.222 | 3.54
CCSc1nc(=S)[nH]c2[nH]ncc12 | 21.6 | 72.7 | 26 | 60.8 | 49.3 | > 100 | 70.6 | > 100 | > 100 | > 100 | 64.6 | > 100 | 51.9 | > 100 | > 100 | > 100 | > 100 | > 100 | > 100 | > 100
C[C@]12CC[C@H]3[C@@H](CC=C4C[C@@H](O)CC[C@@]43C)[C@@H]1C/C(=C\c1cccc(OCCCn3ccnc3)c1)[C@@H]2O | 13.4 | 26.8 | 5.16 | 23.4 | 15.7 | 39.6 | 16.1 | 43.4 | 13.8 | 31.8 | – | 29.9 | 16.8 | 37.5 | 6.8 | 26.4 | 12.2 | 29.1 | 14.1 | 28.8
